Read-outs that look alike come from different tables or passages of the source.
Legend:
RAW264.7 macrophages [1] = assay: Foam cell formation, Oil Red O staining; assay type: cell-based, murine; settings: n = 3; for effect of co-treatment on the protective (foam cell inhibiting) effect of ELA-11: ox-LDL 50 μg/ml 48 h + ELA-11, modulator 1 μM, vs ox-LDL + ELA-11 group
Description: To assess the impact of ELA-11 on foam cell formation, RAW264.7 macrophages were pretreated with ELA-11 (1 μM) for 2 h before being exposed to ox-LDL (50 μg/ml) for 48 h.
(§1) For foam cell formation assays, cells were seeded in 6-well plates at 1 × 10^6 cells/well. Cells were pretreated with ELA-11 (1 μM) for 2 h before exposure to oxidized low-density lipoprotein (ox-LDL, 50 or 100 μg/ml) for 48 h. Where indicated, cells were cotreated with tunicamycin (1 μM, ER stress activator), ML221 (1 μM, APJ receptor antagonist), Recilisib (1 μM, AKT activator), or 4-PBA (1 μM, ER stress inhibitor).
Cells were fixed with 4% paraformaldehyde for 30 min, rinsed with 60% isopropanol, and stained with Oil Red O working solution for 10 min. After washing with distilled water, stained cells were imaged using a light microscope. For quantification, staining intensity was analyzed using ImageJ software.

RAW264.7 macrophages [2] = assay: CCK-8 cell viability assay; assay type: cell-based, murine
Description: Finally, the cytotoxicity of mPEG@ELA-11 was assessed using the CCK-8 assay. […] The absence of cytotoxicity is a critical factor for the potential clinical application of mPEG@ELA-11.
Cell viability was assessed using the CCK-8 kit (Biosharp, China) according to the manufacturer’s instructions. Cells were seeded in 96-well plates at 1 × 10^5 cells/ml and treated with various compounds for 24 to 72 h before analysis.

ApoE^-/- mice [3] = assay: Biosafety evaluation in mice (histology, body weight, blood biochemistry); settings: for histopathological changes in major organs (heart, liver, spleen, lungs, and kidneys): 1 mg/kg every 3 days; for tissue morphology of heart, liver, spleen, lungs, and kidneys (H&E), long-term toxicity: 1 mg/kg via the tail vein, once every 3 days for 2 consecutive months, n = 6; for changes in body weight: throughout the treatment period, n=6, p>0.05
Description: To evaluate the safety and biocompatibility of the treatments, histological analysis was performed on major organs (heart, liver, spleen, lungs, and kidneys) from all groups.
At the study endpoint, mice were euthanized under isoflurane anesthesia. Blood was collected for biochemical analysis, and the entire aorta was harvested from the ascending aorta to the iliac bifurcation.
Histological examination of the heart, liver, spleen, lungs, and kidneys in different treatments groups which were respectively injected with the same dose (1 mg/kg) of PBS, ELA-11, and mPEG@ELA-11 via the tail vein, once every 3 days for 2 consecutive months. […] Representative images were chosen from n = 6 mice per group.

[4] = test system: ER stress-associated proteins (p-PERK, p-eIF2α, CHOP, and ATF4); assay: Western blot of ER stress markers; assay type: cell-based, murine; settings: ox-LDL + ELA-11 + modulator (1 μM), n = 3
Description: as §1
(§2) Cells were lysed in RIPA buffer supplemented with protease and phosphatase inhibitors. Equal protein amounts were separated by 10% sodium dodecyl sulfate–polyacrylamide gel electrophoresis, followed by transfer to polyvinylidene fluoride membranes. Membranes were blocked with 5% milk and incubated overnight at 4 °C with primary antibodies against p-PERK, PERK, p-eIF2α, eIF2α, ATF4, CHOP, p-AKT, AKT, and GAPDH, followed by horseradish peroxidase-conjugated secondary antibodies. Protein bands were visualized using enhanced chemiluminescence reagents.

AKT phosphorylation = assay: Western blot of AKT phosphorylation; assay type: cell-based, murine; settings: ox-LDL + ELA-11 + modulator (1 μM), n = 3
Description: as §1, §2

ApoE^-/- mice [5] = assay: Atherosclerosis in ApoE-/- mice fed a high-fat diet; assay type: in vivo; settings: HFD
From the text: To evaluate the therapeutic efficacy of ELA-11 in AS, ApoE^-/- mice fed a high-fat diet (HFD) were utilized as an established AS model. Male ApoE^-/- mice were randomly allocated into 3 groups (n = 6 per group): a control group fed a normal chow diet (NCD), an HFD group treated with phosphate-buffered saline (HFD + PBS), and a treatment group treated with ELA-11 (HFD + ELA-11). ApoE^-/- mice were initiated on HFD at 8 weeks of age. Four weeks later, at the beginning of the fifth week of HFD feeding, mice in the HFD + ELA-11 group received intraperitoneal injections of ELA-11 (1 mg/kg) every 3 days for a total of 19 injections. Mice were sacrificed at 20 weeks of age (Fig. 4A).
To evaluate the therapeutic potential of mPEG@ELA-11 NPs in vivo, a series of experiments were conducted using ApoE^-/- mice fed an HFD for 3 months to induce AS. The mice were randomly assigned to 4 groups (n = 6): a negative control group fed an NCD, an HFD group treated with PBS (HFD + PBS), an HFD group treated with free ELA-11 (HFD + ELA-11), and an HFD group treated with mPEG@ELA-11 NPs (HFD + mPEG@ELA-11). The administration route, frequency, and dosage were the same as described above.
Male ApoE^-/- mice (26 to 31 g, 8 weeks old) were obtained from GemPharmatech Co., Ltd. and housed under specific pathogen-free conditions. Mice were randomly allocated into 4 groups (n = 6/group): NCD, HFD + PBS, HFD + ELA-11, and HFD + mPEG@ELA-11. The HFD (Research Diets D12079B) consisted of 21% fat and 0.21% cholesterol. Drug treatments (1 mg/kg) were administered intraperitoneally every 3 days for 8 weeks, beginning at week 13. All animal procedures were approved by the institutional animal care committee.

[6] = Colloidal stability in physiological media over 5 days; assay type: physicochemical; settings: mean ± SD
Description: The colloidal stability of mPEG@ELA-11 was evaluated in various physiological media over a 5-day period. The hydrodynamic diameter remained stable in PBS, serum, and 1640 culture medium, with only minor increases observed over time (Fig. 5E). On day 1, the sizes in PBS, serum, and 1640 medium were 36 ± 2.12, 43 ± 3.01, and 44 ± 4.53 nm, respectively. By day 5, these had increased slightly to 42 ± 3.36, 49 ± 3.49, and 50 ± 2.98 nm, respectively.

[7] = Nanoparticle size by DLS and TEM; assay type: physicochemical
Description: The slight difference between DLS and TEM measurements is expected, as DLS measures the hydrodynamic diameter in solution, while TEM visualizes dehydrated NPs.
(§3) NP characterization was performed using FT-IR, NMR, DLS, and TEM. pH-responsive drug release was evaluated at pH values of 5.5, 6.5, and 7.4. For fluorescence imaging, NPs were labeled with ICG, Cy5 or Cy5.5.

[8] = pH-responsive in vitro release of ELA-11; assay type: physicochemical
Description: To assess the pH-responsive release behavior of mPEG@ELA-11, in vitro release studies were conducted. […] At 12 h post-injection, only 45% of Cy5-mPEG@ELA-11 was degraded, while 70% of Cy5-ELA-11 had already been degraded.
as §3

ApoE^-/- mice [9] = assay: Serum inflammatory markers and lipids in treated ApoE-/- mice; assay type: in vivo
From the text: At the study endpoint, mice were euthanized under isoflurane anesthesia. Blood was collected for biochemical analysis, and the entire aorta was harvested from the ascending aorta to the iliac bifurcation. For en face analysis, aortas were stained with Oil Red O. The aortic root was sectioned for histological analysis, including Oil Red O, H&E, Masson’s trichrome, and immunofluorescence staining for CD31 and α-SMA.

[10] = n = 6, P < 0.05, the words describe the HFD group, i.e. treated groups lower

## O=C(O)CCCc1ccccc1 [4-PBA, 4-phenylbutyric acid]
RAW264.7 macrophages [1]; ox-LDL 50 μg/ml 48 h, cotreatment, P < 0.0001 vs ox-LDL group
  foam cell formation (Oil Red O), rescue experiment: comparable

## CSCC[C@H](NC(=O)[C@@H](N)CS)C(=O)N1CCC[C@H]1C(=O)N[C@@H](CC(C)C)C(=O)N[C@@H](Cc1cnc[nH]1)C(=O)N[C@@H](CO)C(=O)N[C@@H](CCCNC(=N)N)C(=O)N[C@H](C(=O)N1CCC[C@H]1C(=O)N[C@@H](Cc1ccccc1)C(=O)N1CCC[C@H]1C(=O)O)C(C)C [ELA-11]
RAW264.7 macrophages [2]
  cytotoxicity (cell viability assay): no significant cytotoxicity
ApoE^-/- mice [3]
  histopathological changes in major organs (heart, liver, spleen, lungs, and kidneys): No significant histopathological changes
  tissue morphology of heart, liver, spleen, lungs, and kidneys (H&E), long-term toxicity: no appreciable changes in tissue morphology
  changes in body weight: No significant histopathological changes in any of the organs or abnormal changes in body weight were observed

## O=C(Oc1coc(CSc2ncccn2)cc1=O)c1ccc([N+](=O)[O-])cc1 [ML221]
[4]
  effect of co-treatment on the suppression of ER stress markers by ELA-11: partially reverse
RAW264.7 macrophages [2]
  cytotoxicity (cell viability assay): no significant cytotoxicity
RAW264.7 macrophages [1]
  effect of co-treatment on the protective (foam cell inhibiting) effect of ELA-11: significantly attenuated
AKT phosphorylation
  effect of co-treatment on the inhibition of AKT signaling by ELA-11: attenuated

## O=C(O)c1ccc(/C=C/S(=O)(=O)Cc2ccc(Cl)cc2)cc1 [Recilisib]
[4]
  effect of co-treatment on the suppression of ER stress markers by ELA-11: lost its inhibitory effect
RAW264.7 macrophages [1]
  effect of co-treatment on the protective (foam cell inhibiting) effect of ELA-11: reversed

## Tunicamycin
[4]
  effect of co-treatment on the suppression of ER stress markers by ELA-11: diminished
RAW264.7 macrophages [2]; CCK-8, ox-LDL-induced Raw264.7 macrophages, concentrations employed in the study, 24 and 48 hours, n=4, p > 0.05 (Fig. S1)
  cytotoxicity (cell viability assay): no significant cytotoxicity
RAW264.7 macrophages [1]
  effect of co-treatment on the protective (foam cell inhibiting) effect of ELA-11: significantly attenuated
AKT phosphorylation
  effect of co-treatment on the inhibition of AKT signaling by ELA-11: maintained its inhibitory effect

## methoxy polyethylene glycol@Elabela-11 [mPEG@ELA-11]
ApoE^-/- mice [5]; 1 mg/kg i.p. every 3 days, H&E, n = 6, P < 0.05
  necrotic core size in aortic root sections, compared to free ELA-11: more substantial decrease
ApoE^-/- mice [5]; 1 mg/kg i.p. every 3 days, Oil Red O, n = 6, P < 0.001
  overall plaque area in aortic root sections, compared to free ELA-11: more substantial decrease
ApoE^-/- mice [5]; 1 mg/kg i.p. every 3 days, n = 6, P < 0.0001, no significant difference between the 2 treatment groups
  collagen content within the plaques (Masson's trichrome, aortic root): increased collagen content
ApoE^-/- mice [5]; 1 mg/kg i.p. every 3 days, n = 6, P < 0.001
  atherosclerotic plaque area of the entire aorta (Oil Red O), compared to free ELA-11: greater reduction
ApoE^-/- mice [5]; n = 6, P < 0.001, P < 0.0001
  integrity of the vascular endothelium (CD31 immunofluorescence): more effective than free ELA-11
ApoE^-/- mice [5]; vs ELA-11 and HFD + PBS group, n = 6, P < 0.05, P < 0.01
  smooth muscle cell proliferation in the plaque area (α-SMA immunofluorescence): significantly inhibited smooth muscle cell proliferation
[6]; 1640 culture medium, day 1
  hydrodynamic diameter, colloidal stability: 44 ± 4.53 nm
[6]; 1640 culture medium, day 5
  hydrodynamic diameter, colloidal stability: 50 ± 2.98 nm
[6]; PBS, day 1
  hydrodynamic diameter, colloidal stability: 36 ± 2.12 nm
[6]; PBS, day 5
  hydrodynamic diameter, colloidal stability: 42 ± 3.36 nm
[6]; serum, day 1
  hydrodynamic diameter, colloidal stability: 43 ± 3.01 nm
[6]; serum, day 5
  hydrodynamic diameter, colloidal stability: 49 ± 3.49 nm
[7]; dehydrated NPs
  size (TEM): ~ 25 nm
[7]; in PBS
  hydrodynamic diameter (DLS): ~ 35 nm
[8]; pH 5.5, after 48 h
  release of ELA-11: 91.2%
[8]; pH 6.5, after 48 h
  release of ELA-11: 74.1%
[8]; pH 7.4, after 48 h
  release of ELA-11: 38.7%
ApoE^-/- mice [3]
  histopathological changes in major organs (heart, liver, spleen, lungs, and kidneys): No significant histopathological changes
  tissue morphology of heart, liver, spleen, lungs, and kidneys (H&E), long-term toxicity: no appreciable changes in tissue morphology
  changes in body weight: No significant histopathological changes in any of the organs or abnormal changes in body weight were observed
ApoE^-/- mice [9]; HFD, among the groups, n = 6
  IL-1β levels in blood serum: no significant differences
ApoE^-/- mice [9]; HFD, n = 6, P < 0.05
  IL-6 in blood serum compared to the HFD group: significantly lower
  TNF-α in blood serum compared to the HFD group: significantly lower
ApoE^-/- mice [9]; [10]
  LDL-C: HFD group compared to the treatment group: significantly higher
  total cholesterol: HFD group compared to the treatment group: significantly higher
  triglycerides: HFD group compared to the treatment group: significantly higher

Source: publication PMC12645589, “mPEG@ELA-11 Alleviates Atherosclerosis via AKT-ER Stress-Mediated Macrophage Modulation” (BME Frontiers, 2025)
